According to US11279733B2, “Peptide antibiotics” (priority 2017, dated 2022):
Values after ≈ are worked out from the molar mass of the structure shown. Positions of bridges follow the written chain, without caps; N, C: chain ends. Non-standard residues stand in square brackets, D forms with d. Residues, ends and D or L forms follow the SMILES beside them. *: point of attachment. Decanoyl(3R-OH) = CCCCCCC[C@@H](O)CC(=O)*; Undecanoyl = CCCCCCCCCCC(=O)*; Lauroyl = CCCCCCCCCCCC(=O)*; dDap = NC[C@@H](N)C(=O)O; Dab = NCC[C@H](N)C(=O)O; Nva = CCC[C@H](N)C(=O)O; Abu = CC[C@H](N)C(=O)O

Columns and labels:
E. coli ATCC 25922 = details: ATCC 25922
Outline: (§1)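 Mid-log cultures grown in Mueller Hinton broth at 37° C were tested by 2-fold broth microdilution at 5×10^5 CFU/mL final. Compounds were dissolved in water and tested over a final range of 32 to 0.015 μg/mL.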

P. aeruginosa ATCC 27853 = details: ATCC 27853
Outline: as §1

[1] = system: K. pneumoniae ATCC BAA-2146, NDM-1 pos; details: ATCC BAA-2146
Outline: as §1

[2] = system: K. pneumoniae GN_102 PmxR; details: GN 102 PmxR
Outline: as §1

[3] = system: P. aeruginosa GN_043, PmxR; details: P. aeruginosa GN_043, PmxR
Outline: as §1

A. baumannii GN_093 PmxR = details: GN 093 PmxR
Outline: as §1

[4] = system: K. pneumoniae GN_106, PmxR; details: GN 106, PmxR
Outline: as §1

A. baumannii ATCC 19606 = details: ATCC 19606
Outline: as §1

K. pneumoniae ATCC 13883 = details: ATCC 13883
Outline: as §1

[5] = system: K. pneumoniae ATCC 700603, MDR; details: ATCC 700603
Outline: as §1

[6] = system: P. aeruginosa GN_105, PmxR; details: GN 105, PmxR
Outline: as §1

in vitro = details: human
Protocol: Cytotoxicity of the synthesised peptides was evaluated by comparison with commercially available colistin (polymyxin E), polymyxin B (Sigma chemical Co., St. Louis, Mo., U.S.A.) and synthetic octapeptin C4 by conducting lactate dehydrogenase (LDH) assay. CC50 values calculated based on curve fitting of dose dependent inhibition of cell growth represented the cytotoxicity of the peptide. Human kidney 2 (HK2) cells were seeded as 2000 cells per well in a 384 well cell culture plate in a final volume of 20 μL in DMEM/F12 medium (Invitrogen #11330057), in which 10% of FBS was added. Cells were incubated for 24 hours at 37° C., 5% CO2 to allow cells to attach to the plates. Similar conditions were employed for HEK293 and HepG2 cytotoxicity assays.
Cytotoxicity to HEK293 and HepG2 cells was determined using the resazurin assay (McMillian, M. K.; Li, L.; Parker, J. B.; Patel, L.; Zhong, Z.; Gunnett, J. W.; Powers, W. J.; Johnson, M. D. An improved resazurin-based cytotoxicity assay for hepatic cells; Cell Biol. Toxicol. 2002, 18, 157-173; O'Brien, J.; Wilson, I.; Orton, T.; Pognan, F. Investigation of the Alamar Blue (resazurin) fluorescent dye for the assessment of mammalian cell cytotoxicity. Eur. J. Biochem. 2000, 267, 5421-5426). In brief, HEK293 and HepG2 cells were seeded at 4000 cells/well in black-wall, clear-bottom 384-well plates (Corning, Australia) and incubated for 24 h at 37° C., 5% CO2. Compounds were then added into each well. After 24 h incubation, 5 μM resazurin was added per well and incubated at 37° C. for 2 h. Fluorescence intensity was then read using a Polarstar Omega with excitation/emission 560/590. The data was then analyzed using GraphPad Prism 6 software. CC50 values were determined using GraphPad Prism 6 software (Inc. La Jolla, Calif.).

Compound	MIC E. coli ATCC 25922 (E. coli ATCC 25922) [µg/mL]	MIC P. aeruginosa ATCC 27853 (P. aeruginosa ATCC 27853) [µg/mL]	MIC K. pneumoniae ATCC BAA-2146, NDM-1 pos [1] [µg/mL]	MIC K. pneumoniae GN_102 PmxR [2] [µg/mL]	MIC P. aeruginosa GN_043, PmxR [3] [µg/mL]	MIC A. baumannii GN_093 PmxR (A. baumannii GN_093 PmxR) [µg/mL]	MIC K. pneumoniae GN_106, PmxR [4] [µg/mL]	MIC A. baumannii ATCC 19606 (A. baumannii ATCC 19606) [µg/mL]	MIC K. pneumoniae ATCC 13883 (K. pneumoniae ATCC 13883) [µg/mL]	MIC K. pneumoniae ATCC 700603, MDR [5] [µg/mL]	MIC P. aeruginosa GN_105, PmxR [6] [µg/mL]	CC50 at 24 h (in vitro) [µM]
CCCCCCC[C@@H](O)CC(=O)N[C@H](CN)C(=O)N[C@H]1CCNC(=O)[C@H](CC(C)C)NC(=O)[C@H](CCN)NC(=O)[C@H](CCN)NC(=O)[C@H](CC)NC(=O)[C@@H](Cc2ccccc2)NC(=O)[C@H](CCN)NC1=O [compound 9292, 3(R)OH-nC9CO-D-Dap-cyc[L-Dab-L-Dab-D-Phe-L-Abu-L-Dab-L-Dab-L-Leu]] ({Decanoyl(3R-OH)}-[dDap][Dab][Dab][dF][Abu][Dab][Dab]L; lactam 2-C)	4 (≈ 3.99 µM)	2 (≈ 2 µM)	4 (≈ 3.99 µM)	2 (≈ 2 µM)	2 (≈ 2 µM)	8 (≈ 7.98 µM)	4 (≈ 3.99 µM)	8 (≈ 7.98 µM)	4 (≈ 3.99 µM)	4 (≈ 3.99 µM)	8 (≈ 7.98 µM)	> 300
CCCCCCC[C@@H](O)CC(=O)N[C@H](CN)C(=O)N[C@H]1CCNC(=O)[C@H](CC(C)C)NC(=O)[C@H](CCN)NC(=O)[C@H](CCN)NC(=O)[C@H](CCC)NC(=O)[C@@H](Cc2ccccc2)NC(=O)[C@H](CCN)NC1=O [compound 9293, 3(R)OH-nC9CO-D-Dap-cyc[L-Dab-L-Dab-D-Phe-L-NorVal-L-Dab-L-Dab-L-Leu]] ({Decanoyl(3R-OH)}-[dDap][Dab][Dab][dF][Nva][Dab][Dab]L; lactam 2-C)	4 (≈ 3.94 µM)	2 (≈ 1.97 µM)	4 (≈ 3.94 µM)	2 (≈ 1.97 µM)	1 (≈ 0.984 µM)	4 (≈ 3.94 µM)	2 (≈ 1.97 µM)	8 (≈ 7.87 µM)	4 (≈ 3.94 µM)	4 (≈ 3.94 µM)	4 (≈ 3.94 µM)	> 300
CCCCCCCCCCC(=O)N[C@H](CN)C(=O)N[C@H]1CCNC(=O)[C@H](CC(C)C)NC(=O)[C@H](CCN)NC(=O)[C@H](CCN)NC(=O)[C@H](CC(C)C)NC(=O)[C@@H](Cc2ccccc2)NC(=O)[C@H](CCN)NC1=O [compound 9296, nC10CO-D-Dap-cyc[L-Dab-L-Dab-D-Phe-L-Leu-L-Dab-L-Dab-L-Leu]] (Undecanoyl-[dDap][Dab][Dab][dF]L[Dab][Dab]L; lactam 2-C)	4 (≈ 3.89 µM)	2 (≈ 1.94 µM)	4 (≈ 3.89 µM)	2 (≈ 1.94 µM)	1 (≈ 0.972 µM)	32 (≈ 31.1 µM)	4 (≈ 3.89 µM)	16 (≈ 15.6 µM)	4 (≈ 3.89 µM)	2 (≈ 1.94 µM)	32 (≈ 31.1 µM)	63
CCCCCCCCCCCC(=O)N[C@H](CN)C(=O)N[C@H]1CCNC(=O)[C@H](CC(C)C)NC(=O)[C@H](CCN)NC(=O)[C@H](CCN)NC(=O)[C@H](CC(C)C)NC(=O)[C@@H](Cc2ccccc2)NC(=O)[C@H](CCN)NC1=O [compound 9297, nC11CO-D-Dap-cyc[L-Dab-L-Dab-D-Phe-L-Leu-L-Dab-L-Dab-L-Leu]] (Lauroyl-[dDap][Dab][Dab][dF]L[Dab][Dab]L; lactam 2-C)	2 (≈ 1.92 µM)	4 (≈ 3.84 µM)	8 (≈ 7.67 µM)	8 (≈ 7.67 µM)	2 (≈ 1.92 µM)	8 (≈ 7.67 µM)	8 (≈ 7.67 µM)	16 (≈ 15.3 µM)	4 (≈ 3.84 µM)	4 (≈ 3.84 µM)	8 (≈ 7.67 µM)	33
